The values below come from article PMC9490060, “Synthesis and evaluation of anticancer activity of quillaic acid derivatives: A cell cycle arrest and apoptosis inducer through NF-κB and MAPK pathways” (Frontiers in Chemistry, 2022).

The subject of series [1] is BEL7402 (human hepatocellular carcinoma cell line). The series can be described thus: MTT anti-proliferative assay, BEL7402. The settings on record: Homo sapiens, Bel-7402, 48 h incubation, means ± SD, n = 3. In kind it is cell-based. The source says:
(§1) The anti-proliferative activities against five human cancer cell lines, including HCT116 (human colorectal cancer cell line), MCF-7 (human breast cancer cell line), SW620 (human colorectal cancer cell line), BEL7402 (human hepatocellular carcinoma cell line), and HepG2 (human hepatocellular carcinoma cell line) were established for all the target compounds using the MTT assay.
(§2) The propidium iodide (PI) and Annexin V-FITC apoptosis detection kit were purchased from Invitrogen (Eugene, OR, United States). 3-(4,5-Dimethylthiazol-2-yl)-2,5-diphenyl-2H-tetrazolium bromide (MTT) was purchased from Sigma-Aldrich Co. (St. Louis, MO, United States). All human cell lines were used in this study, colorectal cancer cell HCT116, colorectal cancer cell SW620, breast cancer cell MCF-7, liver hepatocellular carcinoma cell BEL7402, liver hepatocellular carcinoma HepG2 and normal liver cell L02 were initially purchased from American Type Culture Collection (ATCC, Manassas, VA, United States). RPMI-1640 media, Dulbecco’s modified Eagle’s medium (DMEM), and foetal bovine serum (FBS) were provided from Gibco Company (Grand Island, NY, United States). Cell line MCF-7 and HepG2 were cultivated in DMEM containing 10% (v/v) heat-inactivated FBS, 100 units/ml penicillin and […] streptomycin (Grand Island, NY, United States). Cell lines HCT116, BEL7402, SW620, and L02 were cultivated in RPMI 1640 medium containing 10% (v/v) heat-inactivated FBS, 100 units/ml penicillin, and […] streptomycin. The cells were incubated at 37°C under a 5% CO2 and 90% relative humidity (RH) atmosphere.
(§3) Stock solutions were prepared by diluting target compounds in DMSO at concentrations (1.25, 2.5, 5, and 10 mM). The stock solution was then diluted (1.25, 2.5, 5, and 10 μM) with culture medium, and the concentration of DMSO was controlled not to exceed 0.1%.
(§4) Place the cells in a 96-well plate at an appropriate density to ensure exponential growth (1 × 10^4–1.2×10^4 cells per well) throughout the experiment, and then allow the cells to adhere for 24 h. The cells were then treated with continuous concentrations of each compound (1.25, 2.5, 5, and 10 μM) for 48 h. After 48 h of incubation, 15 μl of MTT solution was added to each well, and the final concentration was 2 mg/ml. Then incubate for another 4 h. After incubation, remove the MTT solution and add […] of DMSO to each well for staining. Shake vigorously for 10 min at room temperature to ensure complete dissolution. The optical density (OD) was read on a microplate reader (ELx 800, BioTek, Highland Park, Winooski, VT, United States) with a wavelength of 492 nm, and then the data was analyzed.
In general terms: Tetrazolium assays rely on reduction of a dye to a coloured formazan, in cell work by metabolically active cells.

Series [2] relates to MCF-7 (human breast cancer cell line). The series can be described thus: MTT anti-proliferative assay, MCF-7. In kind it is cell-based. To be noted: Homo sapiens, MCF7, 48 h incubation, means ± SD, n = 3.
Excerpt: as §1, §2, §3, §4

The subject of series [3] is HCT116 (human colorectal cancer cell line). The series can be described thus: MTT anti-proliferative assay, HCT116. In kind it is cell-based. To be noted: Homo sapiens, HCT-116, 48 h incubation, means ± SD, n = 3.
Excerpt: as §1, §2, §3, §4

For series [4], the system named is SW620 (human colorectal cancer cell line). Briefly: MTT anti-proliferative assay, SW620. In kind it is cell-based. The settings on record: Homo sapiens, SW-620, 48 h incubation, means ± SD, n = 3.
Excerpt: as §1, §2, §3, §4

Series [5] deals with HepG2 (human hepatocellular carcinoma cell line). Briefly: MTT anti-proliferative assay, HepG2. It is filed as cell-based. To be noted: Homo sapiens, HepG2, 48 h incubation, means ± SD, n = 3.
Excerpt: as §1, §2, §3, §4

Bounds are passed on as bounds.

For the compound `CC1(C)CC[C@]2(C(=O)OCc3cn(-c4ccccc4)nn3)[C@H](O)C[C@]3(C)C(=CC[C@@H]4[C@@]5(C)CC[C@H](O)[C@@](C)(C=O)[C@@H]5CC[C@]43C)[C@@H]2C1` [Compound A1, (1-phenyl-1H-1,2,3-triazol-4-yl)methyl (4aR,5R,6aS,6bR,8aR,9S,10S,12aR,12bR,14bS)-9-formyl-5,10-dihydroxy-2,2,6a,6b,9,12a-hexamethyl-1,3,4,5,6,6a,6b,7,8,8a,9,10,11,12,12a,12b,13,14b-octadecahydropicene-4a (2H)-carboxylate], the melting point (commonly the temperature of the solid-liquid transition) lay in the range of 186 to 188 °C. For the same compound, the IC50 (in general, the concentration needed to halve the response being measured) in series [1] is over 10 µM. Besides, the IC50 in series [2] was over 10 µM. The midpoint of inhibition in series [3], the IC50, lay at 3.61 ± 1.01 µM. The 50% inhibitory concentration (IC50) in series [4] stood at 8.96 ± 1.78 µM. Also, the IC50 in series [5] was found to be 8.28 ± 2.1 µM.

In turn, `CC1(C)CC[C@]2(C(=O)OCc3cn(-c4ccc(F)cc4)nn3)[C@H](O)C[C@]3(C)C(=CC[C@@H]4[C@@]5(C)CC[C@H](O)[C@@](C)(C=O)[C@@H]5CC[C@]43C)[C@@H]2C1` [Compound A2, (1-(4-fluorophenyl)-1H-1,2,3-triazol-4-yl)methyl (4aR,5R,6aS,6bR,8aR,9S,10S,12aR,12bR,14bS)-9-formyl-5,10-dihydroxy-2,2,6a,6b,9,12a-hexamethyl-1,3,4,5,6,6a,6b,7,8,8a,9,10,11,12,12a,12b,13,14b-octadecahydropicene-4a (2H)-carboxylate] returned a melting point of 171 to 172 °C. The compound further registered a concentration for half-maximal inhibition (IC50) in series [1] of 3.18 ± 1.02 µM. For the same compound, the IC50 in series [2] is over 10 µM. Besides, the IC50 in series [3] is 3.04 ± 0.92 µM. The compound further registered a concentration for half-maximal inhibition (IC50) in series [4] of 8.78 ± 1.77 µM. This compound gave a half-inhibitory concentration (IC50) in series [5] of over 10 µM.

As for `CC1(C)CC[C@]2(C(=O)OCc3cn(-c4ccc(Cl)cc4)nn3)[C@H](O)C[C@]3(C)C(=CC[C@@H]4[C@@]5(C)CC[C@H](O)[C@@](C)(C=O)[C@@H]5CC[C@]43C)[C@@H]2C1` [Compound A3, (1-(4-chlorophenyl)-1H-1,2,3-triazol-4-yl)methyl (4aR,5R,6aS,6bR,8aR,9S,10S,12aR,12bR,14bS)-9-formyl-5,10-dihydroxy-2,2,6a,6b,9,12a-hexamethyl-1,3,4,5,6,6a,6b,7,8,8a,9,10,11,12,12a,12b,13,14b-octadecahydropicene-4a (2H)-carboxylate], the melting point is 193 to 194 °C. In addition, in series [1], the IC50 is over 10 µM. In series [2], the IC50 was over 10 µM. In addition, the 50% inhibitory concentration (IC50) in series [3] is over 10 µM. This compound also showed a concentration for half-maximal inhibition (IC50) in series [4] of over 10 µM. Besides, the half-inhibitory concentration (IC50) in series [5] was over 10 µM.

On to `CC1(C)CC[C@]2(C(=O)OCc3cn(-c4ccc(Cl)c(Cl)c4)nn3)[C@H](O)C[C@]3(C)C(=CC[C@@H]4[C@@]5(C)CC[C@H](O)[C@@](C)(C=O)[C@@H]5CC[C@]43C)[C@@H]2C1` [Compound A4, (1-(3,4-dichlorophenyl)-1H-1,2,3-triazol-4-yl)methyl (4aR,5R,6aS,6bR,8aR,9S,10S,12aR,12bR,14bS)-9-formyl-5,10-dihydroxy-2,2,6a,6b,9,12a-hexamethyl-1,3,4,5,6,6a,6b,7,8,8a,9,10,11,12,12a,12b,13,14b-octadecahydropicene-4a (2H)-carboxylate], for which the melting point is 205 to 206 °C. For the same compound, the IC50 in series [1] is over 10 µM. In addition, the IC50 in series [2] is over 10 µM. In series [3], this compound returned an IC50 of over 10 µM. This compound gave an IC50 in series [4] of over 10 µM. In series [5], this compound displayed an IC50 of over 10 µM.

As for `CC1(C)CC[C@]2(C(=O)OCc3cn(-c4ccc(Br)cc4)nn3)[C@H](O)C[C@]3(C)C(=CC[C@@H]4[C@@]5(C)CC[C@H](O)[C@@](C)(C=O)[C@@H]5CC[C@]43C)[C@@H]2C1` [Compound A5, (1-(4-bromophenyl)-1H-1,2,3-triazol-4-yl)methyl (4aR,5R,6aS,6bR,8aR,9S,10S,12aR,12bR,14bS)-9-formyl-5,10-dihydroxy-2,2,6a,6b,9,12a-hexamethyl-1,3,4,5,6,6a,6b,7,8,8a,9,10,11,12,12a,12b,13,14b-octadecahydropicene-4a (2H)-carboxylate], the melting point was 190 to 192 °C. Further, the concentration for half-maximal inhibition (IC50) in series [1] was over 10 µM. In series [2], this compound had an IC50 of over 10 µM. The compound also came in with an IC50 in series [3] of over 10 µM. The compound further had an IC50 in series [4] of over 10 µM. Besides, the IC50 in series [5] is over 10 µM.

`COc1ccc(-n2cc(COC(=O)[C@]34CCC(C)(C)C[C@H]3C3=CC[C@@H]5[C@@]6(C)CC[C@H](O)[C@@](C)(C=O)[C@@H]6CC[C@@]5(C)[C@]3(C)C[C@H]4O)nn2)cc1` [Compound A6, (1-(4-methoxyphenyl)-1H-1,2,3-triazol-4-yl)methyl (4aR,5R,6aS,6bR,8aR,9S,10S,12aR,12bR,14bS)-9-formyl-5,10-dihydroxy-2,2,6a,6b,9,12a-hexamethyl-1,3,4,5,6,6a,6b,7,8,8a,9,10,11,12,12a,12b,13,14b-octadecahydropicene-4a (2H)-carboxylate] displayed a melting point of 192 to 193 °C. The compound further had an IC50 in series [1] of over 10 µM. In series [2], the IC50 is over 10 µM. Moreover, in series [3], the IC50 was over 10 µM. For the same compound, the IC50 in series [4] is over 10 µM. The same compound registered a half-inhibitory concentration (IC50) in series [5] of over 10 µM.

As for `COc1ccc(-n2cc(COC(=O)[C@]34CCC(C)(C)C[C@H]3C3=CC[C@@H]5[C@@]6(C)CC[C@H](O)[C@@](C)(C=O)[C@@H]6CC[C@@]5(C)[C@]3(C)C[C@H]4O)nn2)cc1OC` [Compound A7, (1-(3,4-dimethoxyphenyl)-1H-1,2,3-triazol-4-yl)methyl (4aR,5R,6aS,6bR,8aR,9S,10S,12aR,12bR,14bS)-9-formyl-5,10-dihydroxy-2,2,6a,6b,9,12a-hexamethyl-1,3,4,5,6,6a,6b,7,8,8a,9,10,11,12,12a,12b,13,14b-octadecahydropicene-4a (2H)-carboxylate], the half-inhibitory concentration (IC50) in series [1], in series [2], in series [3], in series [4] and in series [5] was over 10 µM each time.

`COc1cc(-n2cc(COC(=O)[C@]34CCC(C)(C)C[C@H]3C3=CC[C@@H]5[C@@]6(C)CC[C@H](O)[C@@](C)(C=O)[C@@H]6CC[C@@]5(C)[C@]3(C)C[C@H]4O)nn2)cc(OC)c1OC` [Compound A8, (1-(3,4,5-trimethoxyphenyl)-1H-1,2,3-triazol-4-yl)methyl (4aR,5R,6aS,6bR,8aR,9S,10S,12aR,12bR,14bS)-9-formyl-5,10-dihydroxy 2,2,6a,6b,9,12a-hexamethyl-1,3,4,5,6,6a,6b,7,8,8a,9,10,11,12,12a,12b,13,14b octadecahydropicene-4a (2H)-carboxylate]: the half-maximal inhibitory concentration (IC50) in series [1], in series [2], in series [3], in series [4] and in series [5] was over 10 µM in each case.

Take `COc1cc(-n2cnn(CCOC(=O)[C@]34CCC(C)(C)C[C@H]3C3=CC[C@@H]5[C@@]6(C)CC[C@H](O)[C@@](C)(C=O)[C@@H]6CC[C@@]5(C)[C@]3(C)C[C@H]4O)c2=O)cc(OC)c1OC` [Compound C6, 2-(5-oxo-4-(3,4,5-trimethoxyphenyl)-4,5-dihydro-1H-1,2,4-triazol-1-yl)ethyl (4aR,5R,6aS,6bR,8aR,9S,10S,12aR,12bR,14bS)-9-formyl-5,10-dihydroxy-2,2,6a,6b,9,12a-hexamethyl-1,3,4,5,6,6a,6b,7,8,8a,9,10,11,12,12a,12b,13,14b-octadecahydropicene-4a (2H)-carboxylate]: the 50% inhibitory concentration (IC50) is over 10 µM in series [1]; over 10 µM in series [2]; 5.6 ± 1.55 µM in series [3]; 7.35 ± 1.7 µM in series [4]; over 10 µM in series [5].

With `CC1(C)CC[C@]2(C(=O)O)[C@H](O)C[C@]3(C)C(=CC[C@@H]4[C@@]5(C)CC[C@H](O)[C@@](C)(C=O)[C@@H]5CC[C@]43C)[C@@H]2C1` [QA, quillaic acid], the IC50 in series [1], in series [2], in series [3], in series [4] and in series [5] was over 10 µM in each case.
